Experimental data as given in patent US10344025B2, “GLS1 inhibitors for treating disease” (Board of Regents, The University of Texas System, priority 2014, dated 2019).
pEC50, pIC50: −log10 of the molar value.

Legend:
[1] = tested on: A549 cells; assay: Proliferation Assay (A549 viability, Cell Titer Fluor, 72 hours); assay type: cell-based; settings: Homo sapiens, A549, 72 h
Outline: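 Cell Titer Fluor fluorescence after 72 h compound treatment (0.5% DMSO, 37 °C, 5% CO2) of A549 cells plated 24 h earlier at 1000/well. Four-parameter logistic fitting gave IC50.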

[2] = biological target: purified recombinant human GAC (GLS1) (Homo sapiens (Human), UniProt O94925); assay: GLS1 Enzymatic Activity Assay (dual-coupled enzymatic assay, resorufin/Amplex UltraRed readout); assay type: biochemical;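 note: glutamate from GAC coupled via glutamate oxidase and peroxidase to resorufin, read as fluorescence (ex 530, em 590 nm) kinetically or at 20 min, four-parameter logistic IC50 fit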
purified recombinant human GAC (GLS1), sequence (O94925 other isoform, or with tags, fused parts or gaps): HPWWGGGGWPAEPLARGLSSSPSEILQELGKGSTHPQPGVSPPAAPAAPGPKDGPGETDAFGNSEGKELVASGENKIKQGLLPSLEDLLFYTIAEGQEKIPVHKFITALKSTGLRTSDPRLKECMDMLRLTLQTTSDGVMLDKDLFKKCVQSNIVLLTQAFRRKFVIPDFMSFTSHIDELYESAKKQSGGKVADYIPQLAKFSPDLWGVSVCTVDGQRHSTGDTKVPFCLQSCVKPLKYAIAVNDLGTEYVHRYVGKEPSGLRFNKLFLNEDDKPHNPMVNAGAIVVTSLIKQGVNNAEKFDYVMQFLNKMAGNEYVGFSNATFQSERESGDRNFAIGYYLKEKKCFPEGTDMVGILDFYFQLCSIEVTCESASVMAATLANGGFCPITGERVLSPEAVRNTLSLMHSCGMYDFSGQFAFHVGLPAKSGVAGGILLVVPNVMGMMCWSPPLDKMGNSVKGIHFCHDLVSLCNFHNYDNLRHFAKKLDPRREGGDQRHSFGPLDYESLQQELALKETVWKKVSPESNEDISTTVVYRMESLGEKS

Compound	pEC50 [1]	pIC50 [2]
O=C(CN1CC(F)(F)C1)Nc1cn(CCCCn2cc(C(=O)NCc3cccc(OC(F)(F)F)c3)nn2)nn1 [Example 330, 1-(4-{4-[2-(3,3-difluoroazetidin-1-yl)acetamido]-1H-1,2,3-triazol-1-yl}butyl)-N-{[3-(trifluoromethoxy)phenyl]methyl}-1H-1,2,3-triazole-4-carboxamide]	6.30 to 7.00	> 7.00
O=C(Cc1ccccc1)Nc1nnc(CCCCCn2cc(C(=O)NCc3ccccc3)nn2)s1 [Example 4, N-Benzyl-1-(5-(5-(2-phenylacetamido)-1,3,4-thiadiazol-2-yl)pentyl)-1H-1,2,3-triazole-4-carboxamide]	6.30 to 7.00	6.30 to 7.00
Cc1ccc(CNC(=O)c2cn(CCC(F)Cn3cc(NC(=O)Cc4ccc(C)nc4)nn3)nn2)cn1 (stereo not drawn) [Example 346, 1-(3-fluoro-4-{4-[2-(6-methylpyridin-3-yl)acetamido]-1H-1,2,3-triazol-1-yl}butyl)-N-[(6-methylpyridin-3-yl)methyl]-1H-1,2,3-triazole-4-carboxamide]	5.30 to 6.30	> 7.00
O=C(NCc1cncc(C(F)(F)F)c1)c1cn(CCCCn2cc(C(=O)NCc3cc(C(F)(F)F)ccn3)nn2)nn1 [Example 141, 1-{4-[4-({[4-(trifluoromethyl)pyridin-2-yl]methyl}carbamoyl)-1H-1,2,3-triazol-1-yl]butyl}-N-{[5-(trifluoromethyl)pyridin-3-yl]methyl}-1H-1,2,3-triazole-4-carboxamide]	> 7.00	> 7.00
CNC(=O)c1cn(CC(F)CCc2nnc(C(=O)NCc3cc(OC(F)(F)F)ccc3F)s2)nn1 (stereo not drawn) [Example 562, 5-{3-fluoro-4-[4-(methylcarbamoyl)-1H-1,2,3-triazol-1-yl]butyl}-N-{[2-fluoro-5-(trifluoromethoxy)phenyl]methyl}-1,3,4-thiadiazole-2-carboxamide]	6.30 to 7.00	> 7.00
O=C(CN1CC(F)C1)Nc1cn(CC(F)CCn2cc(C(=O)NCc3cccc(OC(F)(F)F)c3)nn2)nn1 (stereo not drawn) [Example 371, 1-(3-fluoro-4-{4-[2-(3-fluoroazetidin-1-yl)acetamido]-1H-1,2,3-triazol-1-yl}butyl)-N-{[3-(trifluoromethoxy)phenyl]methyl}-1H-1,2,3-triazole-4-carboxamide]	6.30 to 7.00	> 7.00
O=C(Cc1cc(OC(F)(F)F)ccc1F)Nc1nnc(CCC(F)Cn2cc(C(=O)NCc3ccc(C(F)(F)F)cn3)nn2)s1 (stereo not drawn) [Example 516, 1-[2-fluoro-4-(5-{2-[2-fluoro-5-(trifluoromethoxy)phenyl]acetamido}-1,3,4-thiadiazol-2-yl)butyl]-N-{[5-(trifluoromethyl)pyridin-2-yl]methyl}-1H-1,2,3-triazole-4-carboxamide]	> 7.00	> 7.00
CNC(=O)c1cn(CCCCc2ccc(NC(=O)Cc3cnccn3)nn2)nn1 [Example 579, N-methyl-1-(4-(6-(2-(pyrazin-2-yl)acetamido)pyridazin-3-yl)butyl)-1H-1,2,3-triazole-4-carboxamide]	5.30 to 6.30	6.30 to 7.00
O=C(NCc1cccc(OC(F)(F)F)c1)c1cn(CCC(F)Cn2cc(C(=O)NCc3cccc(C(F)(F)F)n3)nn2)nn1 (stereo not drawn) [Example 436, 1-{2-fluoro-4-[4-({[3-(trifluoromethoxy)phenyl]methyl}carbamoyl)-1H-1,2,3-triazol-1-yl]butyl}-N-{[6-(trifluoromethyl)pyridin-2-yl]methyl}-1H-1,2,3-triazole-4-carboxamide]	> 7.00	> 7.00
Cc1ccc(CNC(=O)c2cn(CCC(F)Cn3cc(NC(=O)CN4CC(F)(F)C4)nn3)nn2)cn1 (stereo not drawn) [Example 393, 1-(4-{4-[2-(3,3-difluoroazetidin-1-yl)acetamido]-1H-1,2,3-triazol-1-yl}-3-fluorobutyl)-N-[(6-methylpyridin-3-yl)methyl]-1H-1,2,3-triazole-4-carboxamide]	5.30 to 6.30	5.30 to 6.30
O=C(Cc1cc(OC(F)(F)F)ccc1F)Nc1cn(CCCCn2cc(C(=O)NCc3cc(OC(F)(F)F)ccc3F)nn2)nn1 [Example 381, 1-[4-(4-{2-[2-fluoro-5-(trifluoromethoxy)phenyl]acetamido}-1H-1,2,3-triazol-1-yl)butyl]-N-{[2-fluoro-5-(trifluoromethoxy)phenyl]methyl}-1H-1,2,3-triazole-4-carboxamide]	> 7.00	> 7.00
O=C(NCc1cncc(C(F)(F)F)c1)c1cn(CC(F)CCc2nnc(C(=O)NCc3cccc(C(F)(F)F)c3)s2)nn1 (stereo not drawn) [Example 480, 5-{3-fluoro-4-[4-({[5-(trifluoromethyl)pyridin-3-yl]methyl}carbamoyl)-1H-1,2,3-triazol-1-yl]butyl}-N-{[3-(trifluoromethyl)phenyl]methyl}-1,3,4-thiadiazole-2-carboxamide]	> 7.00	> 7.00

Results, then the compound that gave them:

pEC50 [1]	pIC50 [2]	Compound
> 7.00	> 7.00	Cc1ccc(CC(=O)Nc2cn(CCCCn3cc(C(=O)NCc4cccc(OC(F)(F)F)c4)nn3)nn2)cn1 [Example 313, 1-(4-{4-[2-(6-methylpyridin-3-yl)acetamido]-1H-1,2,3-triazol-1-yl}butyl)-N-{[3-(trifluoromethoxy)phenyl]methyl}-1H-1,2,3-triazole-4-carboxamide]
> 7.00	> 7.00	O=C(NCc1cc(OC(F)(F)F)ccc1F)c1cn(CC(F)CCc2nnc(C(=O)NCc3cc(C(F)(F)F)ccn3)s2)nn1 (stereo not drawn) [Example 451, 5-{3-fluoro-4-[4-({[2-fluoro-5-(trifluoromethoxy)phenyl]methyl}carbamoyl)-1H-1,2,3-triazol-1-yl]butyl}-N-{[4-(trifluoromethyl)pyridin-2-yl]methyl}-1,3,4-thiadiazole-2-carboxamide]
> 7.00	> 7.00	CNC(=O)c1cn(CCCCc2ccc(NC(=O)CN3CCN(c4ccc(OC(F)(F)F)cc4)CC3)nn2)nn1 [Example 232, N-methyl-1-(4-(6-(2-(4-(4-(trifluoromethoxy)phenyl)piperazin-1-yl)acetamido)pyridazin-3-yl)butyl)-1H-1,2,3-triazole-4-carboxamide]
> 7.00	> 7.00	O=C(NCc1cc(OC(F)(F)F)ccc1F)c1cn(CCC(F)Cn2cc(C(=O)NCc3cc(C(F)(F)F)ccn3)nn2)nn1 (stereo not drawn) [Example 426, 1-{2-fluoro-4-[4-({[2-fluoro-5-(trifluoromethoxy)phenyl]methyl}carbamoyl)-1H-1,2,3-triazol-1-yl]butyl}-N-{[4-(trifluoromethyl)pyridin-2-yl]methyl}-1H-1,2,3-triazole-4-carboxamide]
> 7.00	> 7.00	O=C(NCc1ccc(C(F)(F)F)cn1)c1cn(CCC(F)Cn2cc(C(=O)NCc3cc(C(F)(F)F)ccn3)nn2)nn1 (stereo not drawn) [Example 156, 1-{2-fluoro-4-[4-({[5-(trifluoromethyl)pyridin-2-yl]methyl}carbamoyl)-1H-1,2,3-triazol-1-yl]butyl}-N-{[4-(trifluoromethyl)pyridin-2-yl]methyl}-1H-1,2,3-triazole-4-carboxamide]
> 7.00	> 7.00	CNC(=O)c1cn(CCCCc2ccc(NC(=O)Cc3cc(OC(F)(F)F)ccc3F)nn2)nn1 [Example 160, 1-[4-(6-{2-[2-fluoro-5-(trifluoromethoxy)phenyl]acetamido}pyridazin-3-yl)butyl]-N-methyl-1H-1,2,3-triazole-4-carboxamide]
